Test results: patent publication US9006244B2, “Liver X receptor modulators” (priority 2012, dated 2015)

Tests used:
[1] = molecular target: LXRα ligand binding domain (LBD) (Homo sapiens (Human), UniProt Q13133); experiment: LXR α radioligand binding assay (SPA, [3H]TO901317 competition)
Description: (§1) Poly-lysine SPA beads (50 μg) were added to each well and the total volume was adjusted to 120 μL. The plates were shaken on an orbital shaker for 20 min and then allowed to settle for 10 more minutes at rt before a brief centrifugation at 2,000 rpm for 1 min.

[2] = molecular target: LXRβ ligand binding domain (LBD) (Homo sapiens (Human), UniProt P55055); experiment: LXR β radioligand binding assay (SPA, [3H]TO901317 competition); conditions: for selectivity for the LXRβ subtype over the LXRα subtype: LXRβ versus LXRα, statement in the summary
Sequence of LXRβ ligand binding domain (LBD) (P55055 222-460): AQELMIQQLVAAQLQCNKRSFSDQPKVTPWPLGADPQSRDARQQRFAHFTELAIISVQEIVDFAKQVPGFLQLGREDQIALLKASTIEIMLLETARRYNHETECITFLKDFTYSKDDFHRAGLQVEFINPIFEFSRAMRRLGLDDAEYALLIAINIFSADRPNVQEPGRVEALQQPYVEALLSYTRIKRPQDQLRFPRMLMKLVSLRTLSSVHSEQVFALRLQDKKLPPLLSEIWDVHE
Description: as §1

LXRα = LXRα (Homo sapiens (Human), UniProt Q13133); experiment: LXR luciferase transcriptional reporter gene assay, Gal4-LXRα LBD in HEK293 cells; format: cell-based; conditions: pG5-Luc luciferase reporter, 16 h, read-out: LXRα CELL EC50
Sequence of LXRα (Q13133 209-447): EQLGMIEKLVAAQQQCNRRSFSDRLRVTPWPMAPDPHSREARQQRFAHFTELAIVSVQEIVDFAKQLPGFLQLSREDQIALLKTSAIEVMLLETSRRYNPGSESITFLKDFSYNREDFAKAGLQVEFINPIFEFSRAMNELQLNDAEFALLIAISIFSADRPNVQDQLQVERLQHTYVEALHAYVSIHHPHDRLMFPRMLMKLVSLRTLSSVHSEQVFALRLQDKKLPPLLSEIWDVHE
Description: (§2) The LXR luciferase transcriptional reporter gene assay measures the ability of LXR ligands to promote transcriptional activation via the ligand binding domain (LBD) of LXR. […] 90% confluent cells from a 150 mm dish were seeded in six 100 mm dishes. The cells were batch-transfected with an expression plasmid containing the Gal4 DNA binding domain fused to either the LBD of LXRα or LXRβ and a luciferase reporter plasmid pG5-Luc (Promega, Madison, Wis.), which has Gal4 response elements upstream of firefly luciferase gene (luc+). […] Five h following transfection, 15 mL of 10% charcoal-treated FBS (Hyclone, #SH30070.03) in DMEM were added to the transfected dishes without removing transfection media, and then incubate the cells at 37° C. overnight. The next day, the cells from the transfected dish were trypsinized, washed with PBS, resuspended in 10% charcoal-treated DMEM media and plated into 96-well plates with 60,000 cells/100 μL per well. The cells were incubated at 37° C. for ˜4 h before addition of 100 μL of test compound or control ligand at different concentrations (final DMSO concentration at 0.2%). Following incubation of the cells for 16 h with substances, the culture media were dumped and Bright-Glo™ luciferase reagent (Promega, Cat. #E2610) was added to lyse the cells and initiate the luciferase reaction. Luminescence, as a measure of luciferase activity, was detected in a plate reader (Victor2, PE-Wallac). Transcriptional activation in the presence of a test substance was expressed as fold-change in luminescence compared to that of cells incubated in the absence of the substance. EC50 values were calculated using the XLfit™ program (IDBS, Guilford, UK).

LXRβ = LXRβ (Homo sapiens (Human), UniProt P55055); experiment: LXR luciferase transcriptional reporter gene assay, Gal4-LXRβ LBD in HEK293 cells; format: cell-based; conditions: pG5-Luc luciferase reporter, 16 h, read-out: LXRβ CELL EC50
Sequence of LXRβ (P55055 222-460): as the sequence (P55055 222-460) above
Description: as §2

Sequence of LXRα ligand binding domain (LBD) (Q13133 209-447): as the sequence (Q13133 209-447) above

| Ki [1] [nM] | Ki [2] [nM] | EC50 (LXRα) [nM] | EC50 (LXRβ) [nM] | SMILES | selectivity for the LXRβ subtype over the LXRα subtype [2] |
| --- | --- | --- | --- | --- | --- |
| > 3330 | > 2500 | 17300 | 6940 | CC(C)[C@H]1c2nc3cc(CO)c(S(C)(=O)=O)cc3n2CCN1c1nccc(C(F)(F)F)n1 (single isomer, unassigned) [Compound E2b] | – |
| 43 | 4 | 163 | 10 | CC(C)[C@@H]1c2cc3cc(CO)c(S(C)(=O)=O)cc3n2CCN1c1nccc(C(F)(F)F)n1 (single isomer, unassigned) [Compound E4a, (1-isopropyl-7-(methylsulfonyl)-2-(4-(trifluoromethyl)pyrimidin-2-yl)-1,2,3,4-tetrahydropyrazino[1,2-a]indol-8-yl)methanol] | selective for the LXRβ subtype over the LXRα subtype |
| > 3330 | 846 | > 20000 | > 20000 | CC(C)[C@H]1c2cc3cc(CO)c(S(C)(=O)=O)cc3n2CCN1c1nccc(C(F)(F)F)n1 (single isomer, unassigned) [Compound E4b, (1-isopropyl-7-(methylsulfonyl)-2-(4-(trifluoromethyl)pyrimidin-2-yl)-1,2,3,4-tetrahydropyrazino[1,2-a]indol-8-yl)methanol] | – |

The next lines start with the compound.

| SMILES | Ki [1] [nM] | Ki [2] [nM] | EC50 (LXRα) [nM] | EC50 (LXRβ) [nM] | selectivity for the LXRβ subtype over the LXRα subtype [2] |
| --- | --- | --- | --- | --- | --- |
| CC(C)[C@@H]1c2nc3cc(CO)c(S(C)(=O)=O)cc3n2CCN1c1nccc(C(F)(F)F)n1 (single isomer, unassigned) [Compound E2a] | 318 | 20 | 340 | 13 | selective for the LXRβ subtype over the LXRα subtype |
| CC(C)[C@@H]1c2cc3ccc(S(C)(=O)=O)cc3n2CCN1c1nccc(C(F)(F)F)n1 (single isomer, unassigned) [Compound E3a, 1-isopropyl-7-(methylsulfonyl)-2-(4-(trifluoromethyl)pyrimidin-2-yl)-1,2,3,4-tetrahydropyrazino[1,2-a]indole] | 398 | – | 1100 | – | – |
| CC(C)[C@H]1c2cc3ccc(S(C)(=O)=O)cc3n2CCN1c1nccc(C(F)(F)F)n1 (single isomer, unassigned) [Compound E3b, 1-isopropyl-7-(methylsulfonyl)-2-(4-(trifluoromethyl)pyrimidin-2-yl)-1,2,3,4-tetrahydropyrazino[1,2-a]indole] | > 3330 | – | > 20000 | – | – |
| CC(C)C1c2nc3ccc(S(C)(=O)=O)cc3n2CCN1c1nccc(C(F)(F)F)n1 (centres unmarked) [Compound E1, 1-isopropyl-7-(methylsulfonyl)-2-(4-(trifluoromethyl)pyrimidin-2-yl)-1,2,3,4-tetrahydrobenzo[4,5]imidazo[1,2-a]pyrazine] | 1770 | 256 | 3370 | 313 | – |
